One series relates to OVCAR5 cells. The experiment in a line: Cell viability and synergy with cisplatin. Type of series: cell-based. To be noted: at 1 μM and 10 μM, 72 h.
For the next series, the system named is PEO1 cells. The experiment in a line: Cell viability and synergy with cisplatin. Type of series: cell-based. The conditions noted are these: at 1 μM and 10 μM, 72 h.

Structures are written as SMILES.

For the molecule `O=c1c2cnn(C3COC3)c2nc(SCc2cccc(F)c2)n1-c1ccccc1` [Compound 12g, 6-((3-Fluorobenzyl)thio)-1-(oxetan-3-yl)-5-phenyl-1H-pyrazolo[3,4-d]pyrimidin-4(5H)-one], the “Cytotoxicity of compound alone, OVCAR5” value with OVCAR5 cells was “did not show cytotoxicity”. Also, the “Cytotoxicity of compound alone, PEO1” value in the series with PEO1 cells is “did not show cytotoxicity”.
For `O=c1c2cn(C3COC3)nc2nc(SCc2cccc(F)c2)n1-c1ccccc1` [Compound 13g, 6-((3-Fluorobenzyl)thio)-2-(oxetan-3-yl)-5-phenyl-2H-pyrazolo[3,4-d]pyrimidin-4(5H)-one], the “Cytotoxicity of compound alone, OVCAR5” value in the series on OVCAR5 cells is “did not show cytotoxicity”. Also, the “Cytotoxicity of compound alone, PEO1” value in the series on PEO1 cells is reported as “did not show cytotoxicity”.

For the origin of these results see paper PMC6477540 (Journal of medicinal chemistry, 2018).
